Values joined by “and” are separate entries in the source; they are usually repeats but may differ in a detail not shown here. Identical values can stand only once.
Test: UV absorption properties (λmax, molar extinction coefficient ε, efficiency E 1%, 1 cm)
Assay type: physicochemical
Conditions: for shift / increase in λmax: versus base enaminoketone or alkanoyl counterparts
[1] = values in order of the λmax values
[2] = Table 6A, N-isobutyl-C3-benzoyl compounds
[3] = Table 7, values in order of the λmax values
[4] = Table 1, values in order of the λmax values

Structure (SMILES) | UV λmax | ε (molar extinction coefficient) [1] [M⁻¹ cm⁻¹] | also measured
COc1ccc(N2C=C(C(=O)C(F)(F)F)C(C)(C)CC2)cc1 [Compound 195, 2,2,2-trifluoro-1-(1-(4-methoxyphenyl)-4,4-dimethyl-1,4,5,6-tetrahydropyridin-3-yl)ethanone] | 339 nm | 24235 | –
C=CCCC(=O)C1=CN(CC(C)C)CCC1(C)C [Compound 8, 1-(1-Isobutyl-4,4-dimethyl-1,4,5,6-tetrahydropyridin-3-yl)pent-4-en-1-one] | 308 nm | 35000 | –
CCC(=O)C1=CN(c2cccc3ccccc23)CCC1(C)C [Compound 178, 1-(4,4-dimethyl-1-(naphthalen-1-yl)-1,4,5,6-tetrahydropyridin-3-yl)propan-1-one] | 321 nm | 23247 | –
C=C/C=C/C(=O)C1=CN(CC(C)C)CCC1(C)C [Compound 38, (2E/Z) 1-(1-isobutyl-4,4-dimethyl-1,4,5,6-tetrahydropyridin-3-yl)penta-2,4-dien-1-one] | 352 nm | 18000 | –
CCCCCCCC(=O)C1=CN(c2ccc(N(C)C)cc2)CCC1(C)C [Compound 175, 1-(1-(4-(dimethylamino)phenyl)-4,4-dimethyl-1,4,5,6-tetrahydropyridin-3-yl)octan-1-one] | 338 nm | 28040 | –
CC(C)CN1C=C(C(=O)c2ccc(C(=O)C3=CN(CC(C)C)CCC3(C)C)cc2)C(C)(C)CC1 [drawing 88] | – | – | E (1%, 1 cm) (Table 6A): 547; ε (Table 6A): 20000 M⁻¹ cm⁻¹; λmax [2]: 320 nm
CC(C)CN1C=C(C(=O)c2cc(C(=O)C3=CN(CC(C)C)CCC3(C)C)cc(C(=O)C3=CN(CC(C)C)CCC3(C)C)c2)C(C)(C)CC1 [drawing 89] | – | – | E (1%, 1 cm) (Table 6A): 502; ε (Table 6A): 33000 M⁻¹ cm⁻¹; λmax [2]: 316 nm
CC1(C)CCN(C(C)(C)C)C=C1C(=O)Nc1ccccc1 [Compound 179, 1-(tert-butyl)-4,4-dimethyl-N-phenyl-1,4,5,6-tetrahydropyridine-3-carboxamide] | 308 nm | 34834 | ε value (unit inferred): 35000 M⁻¹ cm⁻¹
COc1ccc(C(=O)C2=CN(CC(C)C)CCC2(C)C)c(OC)c1 [drawing 91] | – | – | E (1%, 1 cm) (Table 6A): 286; ε (Table 6A): 9500 M⁻¹ cm⁻¹; λmax [2]: 313 nm
C=C(C)CC(=O)C1=CN(CC(C)C)CCC1(C)C [Compound 27, 1-(1-isobutyl-4,4-dimethyl-1,4,5,6-tetrahydropyridin-3-yl)-3-methylbut-3-en-1-one] | 306 nm | 14500 | –
CC1(C)CCN(C(C)(C)C)C=C1C(=O)/C=C/c1ccccc1 [Compound 155, (E)-1-(1-(tert-butyl)-4,4-dimethyl-1,4,5,6-tetrahydropyridin-3-yl)-3-phenylprop-2-en-1-one] | 360 nm | 23198 | –
CCC(=O)C1=CN(CC(C)C)C(=O)CC1(C)C [Compound 64, 1-isobutyl-4,4-dimethyl-5-propionyl-3,4-dihydropyridin-2(1H)-one] | 291 nm | – | –
C=CC(=O)C1=CN(C(C)(C)C)CCC1(C)C [Compound 154, 1-(1-(tert-butyl)-4,4-dimethyl-1,4,5,6-tetrahydropyridin-3-yl)prop-2-en-1-one] | 328 nm | 24907 | –
C=CC(=O)C1=CN(c2ccccc2)CCC1(C)C [Compound 48, 1-(4,4-dimethyl-1-phenyl-1,4,5,6-tetrahydropyridin-3-yl)prop-2-en-1-one] | 346 nm | 21000 | –
C=C(C)C(=O)C1=CN(CC(C)C)CCC1(C)C [drawing 116] | – | – | λmax (Table 7, unsaturated compounds): 310 nm; E (1%, 1 cm) [3]: 806; ε [3]: 18950 M⁻¹ cm⁻¹
C=C(C)C(=O)C1=CN(CC(C)C)CCC1(C)C [Compound 36, 1-(1-Isobutyl-4,4-dimethyl-1,4,5,6-tetrahydropyridin-3-yl)methylprop-2-en-1-one] | 310 nm | 18950 | –
CC(C)CN1C=C(C(=O)c2ccc(C(C)(C)C)cc2)C(C)(C)CC1 [Compound 11, (4-(tert-butyl)phenyl)(1-isobutyl-4,4-dimethyl-1,4,5,6-tetrahydropyridin-3-yl)methanone] | 317 nm | 19000 | shift / increase in λmax: approximately 11 nm

Structure (SMILES) | UV λmax | ε (molar extinction coefficient) [1] [M⁻¹ cm⁻¹] | also measured
CC1(C)CCN(C(C)(C)C)C=C1C(=O)c1ccc(Br)cc1 [Compound 156, (4-bromophenyl)(1-(tert-butyl)-4,4-dimethyl-1,4,5,6-tetrahydropyridin-3-yl)methanone] | 317 nm | 27506 | –
CC(C)=CC(=O)C1=CN(CC(C)C)CCC1(C)C [drawing 107] | – | – | λmax (Table 7, unsaturated compounds): 314 nm; E (1%, 1 cm) [3]: 757; ε [3]: 19000 M⁻¹ cm⁻¹
COc1ccc(C(=O)C2=CN(CC(C)C)CCC2(C)C)cc1 [Compound 12, (1-isobutyl-4,4-dimethyl-1,4,5,6-tetrahydropyridin-3-yl) (4-methoxyphenyl)methanone] | 319 nm | – | shift / increase in λmax: approximately 11 nm
COc1ccc(N2C=C(C(=O)c3ccc(F)cc3)C(C)(C)CC2)cc1 [Compound 54, (4-fluorophenyl)(1-(4-methoxyphenyl)-4,4-dimethyl-1,4,5,6-tetrahydropyridin-3-yl)methanone] | 341 nm | 19350 | –
CC(C)CN1C=C(C(=O)CCC(=O)O)C(C)(C)CC1 [Compound 70, 4-(1-isobutyl-4,4-dimethyl-1,4,5,6-tetrahydropyridin-3-yl)-4-oxobutanoic acid] | 308 nm | – | –
CC(C)CN1C=C(C(=O)c2ccc(Br)cc2)C(C)(C)CC1 [Compound 16, (4-bromophenyl)(1-isobutyl-4,4-dimethyl-1,4,5,6-tetrahydropyridin-3-yl)methanone] | 318 nm | 22500 | –
CCC(=O)C1=CN(CC(C)C)C=CC1(C)C [Compound 65, 1-(1-isobutyl-4,4-dimethyl-1,4-dihydropyridin-3-yl)propan-1-one] | 366 nm | – | –
CC1(C)CCN(c2ccc(C(C)(C)C)cc2)C=C1C(=O)C1c2ccccc2-c2ccccc21 [Compound 205, (1-(4-(tert-butyl)phenyl)-4,4-dimethyl-1,4,5,6-tetrahydropyridin-3-yl)(9H-fluoren-9-yl)methanone] | 339 nm | 30745 | –
CC(C)CN1C=C(C(=O)c2ccc(C(=O)c3ccccc3)cc2)C(C)(C)CC1 [Compound 23, (4-benzoylphenyl)(1-isobutyl-4,4-dimethyl-1,4,5,6-tetrahydropyridin-3-yl)methanone] | 295 nm | 7500 | –
CCC(=O)C1=CN(c2ccc(C(C)(C)C)cc2)CCC1(C)C [Compound 177, 1-(1-(4-(tert-butyl)phenyl)-4,4-dimethyl-1,4,5,6-tetrahydropyridin-3-yl)propan-1-one] | 329 nm | 31955 | –
COc1ccc(N2C=C(C(=O)COc3ccccc3)C(C)(C)CC2)cc1 [Compound 173, 1-(1-(4-methoxyphenyl)-4,4-dimethyl-1,4,5,6-tetrahydropyridine-3-yl)-2-phenoxyethanone] | 339 nm | 26633 | –
CC(C)CN1C=C(S(=O)(=O)c2ccccc2)C(C)(C)CC1 [drawing 173] | – | – | E (1%, 1 cm) (Table 13A): 359; ε (Table 13A): 11000 M⁻¹ cm⁻¹; λmax (Table 13A, miscellaneous compounds): 285 nm
C=CCCC(=O)C1=CN(CC(C)C)CCC1(C)C [drawing 46] | – | – | λmax (Table 1, covalently coupled compounds): 308 nm; Ε (1%, 1 cm) [4]: 1417; ε [4]: 35000 M⁻¹ cm⁻¹
CC(C)=CC(=O)C1=CN(CC(C)C)CCC1(C)C [Compound 26, 1-(1-isobutyl-4,4-dimethyl-1,4,5,6-tetrahydropyridin-3-yl)-3-methylbut-2-en-1-one] | 310 nm and 314 nm | 19000 | –
Cc1ccc(N2C=CC(C)(C)C(C(=O)C(F)(F)F)=C2)cc1 [Compound 199, 1-(4,4-dimethyl-1-(p-tolyl)-1,4-dihydropyridin-3-yl)-2,2,2-trifluoroethanone] | 388 nm | 14911 | –
CC(C)CN1C=C(C(=O)c2ccccc2)C(C)(C)CC1 [Compound 20, (1-isobutyl-4,4-dimethyl-1,4,5,6-tetrahydropyridin-3-yl)(phenyl)methanone] | 316 nm | 19000 | –
CCCCNC(=O)C1=CN(C(C)(C)C)CCC1(C)C [Compound 183, 1-(tert-butyl)-N-butyl-4,4-dimethyl-1,4,5,6-tetrahydropyridine-3-carboxamide] | 288 nm | 22531 | –

From patent publication US10519111B2, “UV absorbing compounds, compositions comprising same and uses thereof” (CORAL SUNSCREEN PTY LTD, priority 2013, dated 2019)
